Source: patent publication US9556153B1, “JAK1 inhibitors” (Eli Lilly and Company, priority 2015, dated 2017)

Experiments:
JAK1 = JAK1 (Homo sapiens, UniProt P23458); test: AlphaScreen SureFire IL6-TF-1-JAK1 cell-based assay (pSTAT3 detection); set-up: endogenous in cells; host or cells: TF-1 cells; settings: TF-1 cells, IL6 30 ng/mL; n=10; read-out: IC50, IL6-stimulated TF-1 JAK1 cell-based assay
Description: AlphaScreen SureFire Protocol […]-(p-Tyr705)-IL6-TF-1-JAK1 Cell-Based Assay
The JAK1 cell based assay described below is used to determine the JAK1 cellular potency of test compounds.
Starve TF-1 cells in DMEM medium with 0.5% […] and 1× Pen/Strep at 37° C. Plate 100K cells per well in BD 96 well black plates with clear bottoms. Maintain the plates at RT for 30-60 minutes before incubating overnight at 37° C. and 5% CO2. Count cells using Vi-Cell counter, using a cell suspension at […] and plated 100 μL/well in […] Biocoat plates (Catalog #354640).
Prepare compounds at 1:3 serial dilutions in DMSO and further dilute into the medium. Test compounds in a range of 10 point concentrations from 20,000 to 1 nM. Add diluted compound to corresponding cell plates. […]
Perform the following steps sequentially: make acceptor mix (activation buffer/reaction buffer/acceptor beads); transfer 4 μL lysate from 96 well plates to 384 well-Proxiplates; add 5 μL acceptor mix to 384 proxiplate plate(s) and seal plates with aluminum seal; shake 1-2 minutes on plate shaker; incubate plate at RT for 2 hr with gentle shaking; make donor mix (donor beads in dilution buffer); add 2 μL donor mix to assay plates; seal plates with aluminum seal; shake 1-2 minutes on plate shaker; incubate at RT for 2 hr with gentle shaking; read plate with Envision; protocol AlphaScreen Surefire 384.

JAK3 = target: T1, JAK3 (Homo sapiens, UniProt P52333); test: JAK LanthaScreen Kinase Assay (TR-FRET), JAK3 in vitro enzyme assay; assay type: biochemical; settings: ATP 20.0 μM; n=6
T1 construct: purchased Invitrogen
T1 sequence (P52333 1-1124): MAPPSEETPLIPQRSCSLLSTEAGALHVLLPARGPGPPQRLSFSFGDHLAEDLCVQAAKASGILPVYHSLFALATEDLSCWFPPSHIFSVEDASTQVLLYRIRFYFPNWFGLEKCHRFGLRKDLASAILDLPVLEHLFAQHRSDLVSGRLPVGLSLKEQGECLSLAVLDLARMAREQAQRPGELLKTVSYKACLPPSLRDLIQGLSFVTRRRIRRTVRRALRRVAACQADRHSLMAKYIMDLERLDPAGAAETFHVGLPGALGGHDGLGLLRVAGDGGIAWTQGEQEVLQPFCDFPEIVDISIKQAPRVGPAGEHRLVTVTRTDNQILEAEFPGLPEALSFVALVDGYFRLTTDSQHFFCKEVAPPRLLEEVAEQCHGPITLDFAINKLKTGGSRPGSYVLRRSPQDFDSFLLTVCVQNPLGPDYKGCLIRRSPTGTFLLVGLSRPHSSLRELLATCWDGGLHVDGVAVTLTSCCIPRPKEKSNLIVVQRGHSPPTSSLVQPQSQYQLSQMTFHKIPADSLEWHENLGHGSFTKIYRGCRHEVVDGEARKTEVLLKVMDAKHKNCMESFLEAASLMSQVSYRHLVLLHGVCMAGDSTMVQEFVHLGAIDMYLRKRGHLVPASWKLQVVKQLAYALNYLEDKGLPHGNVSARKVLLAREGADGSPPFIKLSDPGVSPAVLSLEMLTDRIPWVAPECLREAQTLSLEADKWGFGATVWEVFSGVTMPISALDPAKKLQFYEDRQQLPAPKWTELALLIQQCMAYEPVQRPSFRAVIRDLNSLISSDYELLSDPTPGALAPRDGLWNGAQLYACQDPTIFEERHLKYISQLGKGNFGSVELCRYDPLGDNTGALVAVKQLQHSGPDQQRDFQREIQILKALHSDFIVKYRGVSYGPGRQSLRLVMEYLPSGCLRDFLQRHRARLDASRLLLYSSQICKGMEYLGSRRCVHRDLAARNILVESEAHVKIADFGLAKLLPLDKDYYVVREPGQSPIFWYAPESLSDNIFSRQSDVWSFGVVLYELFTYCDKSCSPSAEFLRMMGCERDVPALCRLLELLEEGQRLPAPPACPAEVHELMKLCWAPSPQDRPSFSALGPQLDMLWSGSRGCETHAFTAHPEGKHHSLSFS
Description: JAK1, JAK2 and JAK3 In Vitro Enzyme Assays
The JAK LanthaScreen™ Kinase Assay (Invitrogen) is used to determine the ability of test compounds to inhibit JAK1, JAK2 and JAK3 kinase activity. These are TR-FRET assay formats that use long-lifetime terbium labeled antibody as the donor species and GFP-STAT1 as the acceptor species. Use the TR-FRET ratio to monitor JAK kinase activity where an increase in phosphorylation of the GFP-STAT1 results in an increase in the TR-FRET ratio. Perform the kinase reaction using a 12.5 μl reaction volume in shallow black 384-well Proxiplate. Add reagents to obtain final reaction conditions of […] HEPES pH, 1.76 mM Triton X-100, ATP (20.0 μM for JAK1 and JAK3 or 5 μM for JAK2) enzyme assays, 10.0 mM MgCl2, 1 mM EGTA and 0.01% Brij-35, 0.05 mM GFP-STAT1, 14 nM JAK1 enzyme for JAK1, 1.0 nM for JAK2 or 2.5 nM for JAK3 enzyme assays, and 4% DMSO and serial dilutions of test compound (diluted 1:3 from 20,000 to 1 nM). Following ATP/GFP-STAT1 addition, centrifuge the assay plates for 1 minute at 1000 revolutions per minute (RPM). Allow the plates to incubate at RT for 60 minutes and then add 12.5 μl of a stopping buffer containing 20 mM EDTA, 2 nM Terbium-anti-phosphorylated Signal Transducers and Activators of Transcription [phosphorylation Tyrosine 701 amino acid] […]

Sequence of JAK1 (P23458 whole entry): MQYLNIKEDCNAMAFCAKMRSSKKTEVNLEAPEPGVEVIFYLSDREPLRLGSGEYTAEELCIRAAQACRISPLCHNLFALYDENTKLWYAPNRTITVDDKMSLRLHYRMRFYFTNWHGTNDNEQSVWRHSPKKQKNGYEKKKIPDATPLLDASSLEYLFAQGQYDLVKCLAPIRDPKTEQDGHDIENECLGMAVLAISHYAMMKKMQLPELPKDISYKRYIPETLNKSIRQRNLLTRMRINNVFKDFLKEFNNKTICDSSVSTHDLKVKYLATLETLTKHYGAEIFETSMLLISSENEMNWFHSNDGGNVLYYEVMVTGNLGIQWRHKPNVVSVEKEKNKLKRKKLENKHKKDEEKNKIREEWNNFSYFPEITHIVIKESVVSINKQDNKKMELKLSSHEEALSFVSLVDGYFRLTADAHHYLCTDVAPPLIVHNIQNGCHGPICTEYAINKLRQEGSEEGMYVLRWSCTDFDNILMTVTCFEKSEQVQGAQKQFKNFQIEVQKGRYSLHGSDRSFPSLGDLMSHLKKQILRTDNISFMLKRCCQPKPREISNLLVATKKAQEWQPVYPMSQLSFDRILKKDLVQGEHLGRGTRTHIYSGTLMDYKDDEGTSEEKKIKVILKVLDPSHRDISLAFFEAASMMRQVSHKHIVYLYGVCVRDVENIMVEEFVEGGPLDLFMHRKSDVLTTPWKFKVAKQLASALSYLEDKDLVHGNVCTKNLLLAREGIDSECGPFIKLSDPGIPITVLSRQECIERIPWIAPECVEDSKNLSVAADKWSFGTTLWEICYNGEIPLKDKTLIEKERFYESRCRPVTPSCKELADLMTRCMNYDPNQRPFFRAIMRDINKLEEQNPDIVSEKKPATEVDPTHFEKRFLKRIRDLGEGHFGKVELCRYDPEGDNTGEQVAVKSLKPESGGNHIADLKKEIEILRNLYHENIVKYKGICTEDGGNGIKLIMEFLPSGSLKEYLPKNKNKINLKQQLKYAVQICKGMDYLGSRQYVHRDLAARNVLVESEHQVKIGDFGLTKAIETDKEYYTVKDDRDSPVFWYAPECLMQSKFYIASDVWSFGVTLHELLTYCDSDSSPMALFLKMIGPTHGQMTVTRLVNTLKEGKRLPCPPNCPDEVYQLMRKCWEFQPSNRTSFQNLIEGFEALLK

IC50 (JAK1): 87 nM
IC50 (JAK3): 1910 ± 786 nM
Compound: Cc1cc(Nc2cc(O[C@H]3CC[C@@H](NC[C@@H](O)C(F)(F)F)CC3)cc3c2ncn3C)nn1C [Example 1, (2R)-3-{[cis-4-({4-[(1,5-Dimethyl-1H-pyrazol-3-yl)amino]-1-methyl-1H-benzimidazol-6-yl}oxy)cyclohexyl]amino}-1,1,1-trifluoropropan-2-ol]
